Consider 65 molecules from ChEMBL document CHEMBL2062445, “Synthesis and nicotinic receptor activity of chemical space analogues of N-(3R)-1-azabicyclo[2.2.2]oct-3-yl-4-chlorobenzamide (PNU-282,987) and 1,4-diazabicyclo[3.2.2]nonane-4-carboxylic acid 4-bromophenyl ester (SSR180711)” (J Med Chem, 2012).

Calls of active or inactive are those of the source. The calls are words filed in the database; no cut-off is given here.

Assay [1] deals with T1, Neuronal acetylcholine receptor subunit alpha-7 (Homo sapiens, UniProt P36544). Kind of assay: Antagonist activity at human alpha7 nAChR expressed in Xenopus oocyte assessed as inhibition of ACh-induced current at 10 uM after 30 secs by electrophysiological assay. Type of assay: functional.
In assay [2] the target is T1, Neuronal acetylcholine receptor subunit alpha-7. Kind of assay: Agonist activity at human alpha7 nAChR expressed in Xenopus oocyte assessed as stimulation of ACh-induced current at 10 uM after 30 secs by electrophysiological assay. Type of assay: functional.

T1 sequence (P36544 whole entry): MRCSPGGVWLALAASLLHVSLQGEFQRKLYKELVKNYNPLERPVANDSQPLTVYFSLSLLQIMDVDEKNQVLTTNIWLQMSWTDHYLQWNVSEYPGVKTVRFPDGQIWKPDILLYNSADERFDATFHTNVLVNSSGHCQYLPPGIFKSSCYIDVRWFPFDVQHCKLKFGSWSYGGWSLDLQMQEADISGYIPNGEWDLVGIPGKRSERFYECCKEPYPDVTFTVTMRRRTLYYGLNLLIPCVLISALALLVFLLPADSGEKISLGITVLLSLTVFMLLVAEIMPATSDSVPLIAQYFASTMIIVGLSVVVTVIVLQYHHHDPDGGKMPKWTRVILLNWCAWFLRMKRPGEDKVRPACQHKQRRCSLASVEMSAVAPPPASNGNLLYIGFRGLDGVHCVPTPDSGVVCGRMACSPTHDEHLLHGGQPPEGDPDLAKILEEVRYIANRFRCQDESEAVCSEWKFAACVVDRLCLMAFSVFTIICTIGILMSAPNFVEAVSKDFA

For `CC(C)N1CCC[C@@H]1CNC(=O)Oc1ccc(Br)cc1`, in assay [1], the inhibition is 27%. In assay [2], the outcome was inactive. In the same order, the values of `CN1CC2CCC1C(CNC(=O)c1ccc(Br)cc1)C2` (racemic; form 2) are 66% and “inactive”. For `CC1CCCC1N1CC[C@H](NC(=O)c2ccc(Cl)cc2)C1` (stereo partly drawn), in assay [1], the inhibition stood at 33%.

For `O=C(N[C@H]1CCN(C2CCCCC2)C1)c1ccc2ncsc2c1`, the inhibition in assay [1] stood at 56%. In assay [2], the outcome was inactive. As for `O=C(NCC12CCCN1CCC2)c1ccc(Br)cc1`, in assay [1], the inhibition stood at 9%. The same measure, in the same setting: next, `Cc1ccc(C(=O)NCC23CCCN2CCC3)cc1`: 25%.

Take `O=C(NCC1=CC2CCN1CC2)c1ccc(Br)cc1`: the inhibition in assay [1] came to 30%. In assay [2], the outcome was inactive. Turning to `O=C(c1ccc2c(c1)OCCO2)N1CCCN2CCC[C@H]2C1`, the inhibition in assay [1] worked out at 56%. Still for that read-out and setting: for `CC(C)N1CCN(C(=O)C2COc3ccccc3O2)CC1` (stereo not drawn) the value was 90%.

On to `CC(C)N1C[C@H]2C[C@@H]1CN2C(=O)c1ccc(Cl)cc1`, for which the inhibition in assay [1] came to 69%. The outcome in assay [2] was inactive. With `O=C(NCC12CCCN1CCC2)c1ccccc1Cl`, the inhibition in assay [1] worked out at 35%. With `O=C(NCC1CC2CCN1CC2)c1ccccc1` (racemic), the inhibition in assay [1] was found to be 53%. In the case of `O=C(c1ccc2ncsc2c1)N1CCCN2CCC[C@H]2C1`, in assay [1], the inhibition came to 53%. `CCCN1CCC[C@@H]1CNC(=O)c1ccc(F)cc1`: in assay [1], the inhibition stood at 22%. Also, in assay [2], the outcome was inactive.

With `CC(C)N1CCCCN(C(=O)c2ccc(Cl)cc2)CC1`, in assay [1], the inhibition is 35%. Turning to `CCCC#CCN1CC[C@H](NC(=O)c2ccc3ncsc3c2)C1`, the inhibition in assay [1] amounted to 81%. Also, the outcome in assay [2] was inactive. In the same order, the values of `O=C(c1ccc2c(c1)OCCO2)N1CCCN2CCC[C@@H]2C1` are 40% and “inactive”.

With `CCC#CCN1CCC[C@@H]1CNC(=O)c1ccc2c(c1)OCCO2`, the inhibition in assay [1] was found to be 96%. Still for that read-out and setting: for `CN(C)CCNC(=O)C1COc2ccccc2O1` (stereo not drawn) the value was 52%. Same read-out and setting: next, `CN(C)CCNC(=O)c1ccc(Cl)cc1`: 68%. On the same count and under the same terms, for `CN1CC2CCC1C(CNC(=O)c1ccc3c(c1)OCCO3)C2` (racemic; form 1) the value was 81%. Regarding `CN1CC2CCC1C(CNC(=O)c1ccc3c(c1)OCCO3)C2` (racemic; form 2), the inhibition in assay [1] was determined as 77%. In assay [2], the outcome was inactive. Turning to `O=C(NCC12CCCN1CCC2)c1ccc2ncsc2c1`, the inhibition in assay [1] worked out at 34%. On the same count and under the same terms, next, `CN(C)CCNC(=O)c1ccc2ncsc2c1`: 94%; `CN(C)CCNC(=O)c1ccc2c(c1)OCCO2`: 87%. For the molecule `CC(C)N1CCCN(C(=O)c2ccc3c(c2)OCCO3)CC1`, the outcome in assay [2] was inactive. For `O=C(NCC1=CC2CCN1CC2)Oc1ccc(Br)cc1`, the inhibition in assay [1] was found to be 100%. In assay [2], the outcome was inactive. The like results for `O=C(NCC1=CC2CCN1CC2)c1ccc(F)cc1` were, in that order, 36% and “inactive”. For `O=C(NCC1CC2CCN1CC2)Oc1ccc(Br)cc1` (racemic), the inhibition in assay [1] stood at 80%.

As for `O=C(N[C@H]1CCN(Cc2ccccc2)C1)c1ccc2ncsc2c1`, in assay [1], the inhibition amounted to 94%. For the same molecule, in assay [2], the outcome was inactive. For the molecule `CN1CC2CCC1C(CNC(=O)c1ccc(F)cc1)C2` (racemic; form 1), the inhibition in assay [1] is 52%. In the case of `O=C(NCC12CCCN1CCC2)c1ccc2c(c1)OCCO2`, the inhibition in assay [1] was 33%. Consider `CN1CC2CCC1C(CNC(=O)c1ccc(Cl)cc1)C2` (racemic; form 2), for which the inhibition in assay [1] was 61%. Besides, the result in assay [2] was inactive. Consider `O=C(c1ccc(Cl)cc1)N1CCCN2CCC[C@H]2C1`, for which, in assay [1], the inhibition amounted to 57%. For `C[C@H]1CN2CCCC[C@@H]2CN1C(=O)c1ccc2ncsc2c1` (racemic), the inhibition in assay [1] was found to be 61%. On the same count and under the same terms, for `CN1CC2CCC1C(CNC(=O)c1ccc(Br)cc1)C2` (racemic; form 1) the value was 71%. For the molecule `CCN1CC[C@H](NC(=O)c2ccc3ncsc3c2)C1`, in assay [1], the inhibition was found to be 139%. For the same molecule, the result in assay [2] was inactive.

Take `O=C(NCC12CCCN1CCC2)C1COc2ccccc2O1` (stereo not drawn): the inhibition in assay [1] was determined as 29%. The same measure, in the same setting: next, `CN1CC2CCC1C(CNC(=O)c1ccccc1)C2` (racemic; form 1): 68%. For `O=C(Oc1ccc(Br)cc1)N1CCCN2CCC[C@@H]2C1`, in assay [1], the inhibition came to 36%. The outcome in assay [2] was inactive. On to `CCN1CCC[C@@H]1CNC(=O)c1ccc2ncsc2c1`, for which, in assay [1], the inhibition amounted to 53%. Besides, in assay [2], the outcome was inactive. In the same order, the values of `CC1CCCC1N1CCC(NC(=O)c2ccc3ncsc3c2)CC1` (stereo not drawn) are 65% and “inactive”. Turning to `CN1CC2CCC1C(CNC(=O)c1ccc(Cl)cc1)C2` (racemic; form 1), the inhibition in assay [1] was determined as 60%. Consider `CCN1CCC[C@@H]1CNC(=O)Oc1ccc(Br)cc1`, for which, in assay [1], the inhibition amounted to 53%. The outcome in assay [2] was inactive. The like results for `O=C(NCC1=CC2CCN1CC2)c1ccc2c(c1)OCCO2` were, in that order, 50% and “inactive”. As to `O=C(NC[C@H]1CCCN1C1CCCCC1)c1ccc2ncsc2c1`, the inhibition in assay [1] was determined as 71%. The result in assay [2] was inactive.

For `O=C(NCC1=CC2CCN1CC2)c1ccc(Cl)cc1`, in assay [1], the inhibition was determined as 50%. Further, in assay [2], the result was inactive. For `C[C@H]1CN2CCCC[C@@H]2CN1C(=O)c1ccc(Cl)cc1`, in assay [1], the inhibition was determined as 65%.

As to `CN1CC2CCC1C(CNC(=O)c1ccc(F)cc1)C2` (racemic; form 2), the inhibition in assay [1] came to 55%. Moreover, the result in assay [2] was inactive. In the same order, the values of `CCN1CCC[C@@H]1CNC(=O)c1ccc(Cl)cc1` are 42% and “inactive”. In the case of `CC(C)N1CCN(C(=O)c2ccc3ncsc3c2)CC1`, in assay [1], the inhibition stood at 85%. Still for that read-out and setting: next, `O=C(C1COc2ccccc2O1)N1CCCN2CCC[C@H]2C1` (stereo partly drawn): 54%; `O=C(N[C@@H]1CCN(Cc2ccccc2)C1)c1ccc2ncsc2c1`: 59%; `CC(C)N1CCN(C(=O)Oc2ccc(Br)cc2)CC1`: 82%. The same measure, in the same setting: next, `O=C(Oc1ccc(Br)cc1)N1CCCN2CCC[C@H]2C1`: 62%; `CCC#CCN1CCC[C@@H]1CNC(=O)C1COc2ccccc2O1` (stereo partly drawn): 74%; `CCC#CCN1CCC[C@@H]1CNC(=O)c1ccc(Cl)cc1`: 21%. Still for that read-out and setting: for `CC(C)N1CCN(C(=O)c2ccc(Cl)cc2)CC1` the value was 84%.

Consider `O=C(NCC12CCCN1CCC2)c1cccc(Cl)c1`, for which the inhibition in assay [1] amounted to 32%. Same read-out and setting: for `CC(C)N1CCN(C(=O)c2ccc3c(c2)OCCO3)CC1` the value was 81%.

As for `CCC#CCN1CCC[C@@H]1CNC(=O)Oc1ccc(Br)cc1`, in assay [1], the inhibition stood at 72%. Same read-out and setting: for `C[C@H]1CN2CCCC[C@@H]2CN1C(=O)c1ccc2c(c1)OCCO2` the value was 75%; for `CC(C)N1CCCCN(C(=O)C2COc3ccccc3O2)CC1` (stereo not drawn), 37%; for `O=C(NCC1CC2CCN1CC2)c1ccc2c(c1)OCCO2` (racemic), 79%.

On to `CC(C)N1CCCCN(C(=O)c2ccc3ncsc3c2)CC1`, for which the inhibition in assay [1] worked out at 40%.

In general, inhibition refers to the drop in the measured response relative to a control, in per cent.
